Measurements published in patent publication US8314234B2, “Bicyclic pyrimidine kinase inhibitors” (Janssen Pharmaceutica N.V., priority 2006, dated 2012).

How the values were obtained:
VEGFR2 = VEGFR2 (Rattus norvegicus, UniProt O08775); assay: VEGFR2 screening assay; type: biochemical
Description: A kinase reaction mixture was prepared containing 50 mM Tris-HCl pH=8, 10 mM MgCl2, 0.1 mM […], 1 mM DTT, 10 μM ATP, 0.025 μM biotinylated histone-H1 peptide substrate and 0.2 μCuries per well ^33P-γ-ATP (2000-3000 Ci/mmol). 70 μL of the kinase reaction mixture was dispensed into the well of a streptavidin coated FlashPlate™ (Cat. #SMP103, NEN, Boston, Mass.).
(§1) Test compound stock in 100% DMSO (1 μL) was added to the wells resulting in a final concentration of 1% DMSO in the reaction with a 100 μL final reaction volume. Each enzyme was diluted in 50 mM Tris-HCl pH=8.0, 0.1% BSA and 30 μL was added to each well to initiate the reaction. The reaction was incubated for one hour at 30° C. At the end of the 1 hr incubation, the reaction was terminated by aspirating the mixture from the plate and washing the wells twice with PBS containing 100 mM EDTA. The biotinylated peptide substrate became immobilized on the Flashplate and the incorporation of ^33P-γ-ATP was measured by reading the plate on a scintillation counter. Inhibition of the enzymatic activity was measured by observing a reduced amount of ^33P-γ-ATP incorporated into the immobilized peptide.
The VEGF-R2 enzyme is a fusion protein containing a polyhistidine tag at the N terminus followed by amino acids 786 to 1343 of the rat VEGF-R2 kinase domain (Accession number U93306). The assay used 150 ng of the N-terminal biotinylated peptide biotin-[…]-amide SEQ ID NO: 2) (VEGF-R2) per well.
(§2) A maximum and minimum signal for the assay was determined on each plate. The percent inhibition of a test compound was calculated according to the formula: […]
For a series of test concentrations, the IC50 was derived by graphing percent inhibition against the log of the concentrations tested for a given compound with results shown in Table 2. For those compounds without an IC50, the inhibition values in percent are shown at a test concentration of 2 μM. The term “ND” means “not determined.”

CDK2 = molecular target: T1, CDK2 (Homo sapiens, UniProt P24941); assay: CDK-2 screening assay; type: biochemical
T1 construct: purchased Upstate Biotech, Lake Placid, N.Y
Description: (§3) 70 μL of the kinase reaction mixture was dispensed into the well of a streptavidin coated FlashPlate™ (Cat. #SMP103, NEN, Boston, Mass.).
as §1
The CDK2 enzyme in complex with cyclin A is commercially available (Upstate Biotech, Lake Placid, N.Y.).
as §2
(§4) The term “ND” means “not determined.”

CDK1 = molecular target: T2, CDK1 (Homo sapiens, UniProt P06493); assay: CDK-1 screening assay; type: biochemical
T2 construct: purchased New England Biolabs, Beverly, Mass; 6020; host or cells: insect cells
T2 sequence (P06493 whole entry): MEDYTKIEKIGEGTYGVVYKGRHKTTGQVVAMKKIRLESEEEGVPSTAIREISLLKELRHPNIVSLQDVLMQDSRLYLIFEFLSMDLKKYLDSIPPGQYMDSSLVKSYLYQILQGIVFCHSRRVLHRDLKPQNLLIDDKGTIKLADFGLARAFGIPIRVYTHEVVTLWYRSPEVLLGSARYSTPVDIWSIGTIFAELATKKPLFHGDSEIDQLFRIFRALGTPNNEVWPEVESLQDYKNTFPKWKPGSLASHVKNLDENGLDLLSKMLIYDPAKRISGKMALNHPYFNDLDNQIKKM
T2 sequence (P14635 whole entry partner): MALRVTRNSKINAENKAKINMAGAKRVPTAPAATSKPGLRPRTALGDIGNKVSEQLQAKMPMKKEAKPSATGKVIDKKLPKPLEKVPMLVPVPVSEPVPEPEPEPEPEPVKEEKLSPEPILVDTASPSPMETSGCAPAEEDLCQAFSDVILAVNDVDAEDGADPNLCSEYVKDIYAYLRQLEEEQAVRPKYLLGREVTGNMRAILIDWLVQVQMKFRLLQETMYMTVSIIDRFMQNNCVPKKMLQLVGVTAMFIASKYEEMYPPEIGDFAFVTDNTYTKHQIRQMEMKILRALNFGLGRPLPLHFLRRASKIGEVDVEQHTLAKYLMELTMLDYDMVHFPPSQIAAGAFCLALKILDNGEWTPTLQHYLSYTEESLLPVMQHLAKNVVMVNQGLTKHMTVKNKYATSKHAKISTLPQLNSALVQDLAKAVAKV
Description: as §3, §1, §2, §4

A375 malignant melanoma = assay: Cell Proliferation Inhibition Assay (14C-thymidine incorporation), A375; type: cell-based; conditions: Homo sapiens, A-375
Source text: (§5) The ability of a test compound to inhibit unregulated cell proliferation may be determined by measuring incorporation of ^14C-labelled thymidine into newly synthesized DNA within cell lines derived from carcinomas originating from several tissues. Accordingly, the anti-proliferative effect of a compound on cells with a variety of phenotypes may be determined.
(§6) Carcinoma cell lines include those such as HeLa cervical adenocarcinoma (American Type Culture Collection (ATCC), Virginia, Cat. #CCL-2), A375 malignant melanoma (ATCC CRL-1619), SK-OV-3 ovarian adenocarcinoma (ATCC HTB-77), HCT-116 colon carcinoma (CCL-247), PC-3 prostate adenocarcinoma (ATCC CRL-1435), and MDA-MB-231 (Xenogen Corp.)
(§7) The carcinoma cells are trypsinized and counted. The cells (3000-8000 count) are added to each well of a 96-well CytoStar tissue culture treated scintillating microplate (Amersham #RPNQ0160) in complete medium (100 μL) and the plate is then incubated in complete medium for 24 hrs at 37° C. in an inert atmosphere containing 5% CO2. Test compound (1 μL) in 100% DMSO is added to the plate test-wells with DMSO only added to control-wells. The plate is incubated in complete medium for a second 24 hr period at 37° C. in an atmosphere containing 5% CO2.
(§8) An aliquot of a solution of Methyl ^14C-thymidine (56 mC/mmol) (NEN #NEC568 or Amersham #CFA532) and complete medium (20 uL to provide 0.2 μCi/well) is then added to each well and the plate is incubated for a third 24 hr period at 37° C. in an atmosphere containing 5% CO2. The plate contents are then discarded, the plate is washed twice with PBS (200 μL) and then PBS (200 μL) is added to each well. The plate is sealed and the degree of methyl ^14C-thymidine incorporation is quantified on a Packard Top Count.

HCT-116 colon carcinoma = assay: Cell Proliferation Inhibition Assay (14C-thymidine incorporation), HCT-116; type: cell-based; conditions: Homo sapiens
Source text: as §5, §6, §7, §8

[1] = system: HeLa cervical adenocarcinoma; assay: Cell Proliferation Inhibition Assay (14C-thymidine incorporation), HeLa; type: cell-based; conditions: Homo sapiens
Source text: as §5, §6, §7, §8

EGFR = molecular target: T3, EGFR (Homo sapiens, UniProt P00533); assay: EGFR Kinase Assay; type: biochemical
T3 construct: intracellular portion of EGFR started at nucleotide 2189 (corresponding to amino acid 667) and ended at the termination codon; made in house; host or cells: Sf9 insect cells (baculovirus)
Source text: The EGFR kinase used was a fusion of Glutathione-S-Transferase (GST) and a PCR amplified intracellular portion of EGFR (NM_005228). The intracellular portion of EGFR started at nucleotide 2189 (corresponding to amino acid 667) and ended at the termination codon. The portion was PCR amplified with primers that added the lambda attB sequences to each end, recombined into an entry vector, then into a GST destination vector (as described in Gateway Technologies Manual by Invitrogen Corporation, Carlsbad, Calif.).
The destination vector was recombined in the DH10BAC strain of bacteria to produce a bacmid. The bacmid was transfected into Sf9 cells and the supernatant containing the baculovirus was collected. The GSTEGFR protein was purified using large cultures of Sf9 cells infected with stock virus. After an appropriate period of time, the cells were collected and lysed. The GSTEGFR was then purified from the lysate on Glutathione-Sepharose columns (as described by Amersham Biosciences, Buckinghamshire, United Kingdom).
The EGFR substrate was prepared by biotinylating polyGluTyr (128 mg) (Sigma, St. Louis, Mo.) in a 1×PBS buffer incubated together with a 12-fold molar excess of Sulfo-NHS-LC-Biotin on ice for at least 2 hrs. The free biotin was separated from the biotinylated polyGluTyr on a gel filtration column.
A mixture of a 10× kinase buffer (500 mM Tris at pH 8.0, 100 mM Magnesium Chloride and 1 mM Sodium Vanadate), DTT (1 mM final from 500 mM stock), ATP (5 μM final from 10 mM stock), biotinylated polyGluTyr (10 μg/μL stock), γ-^33P ATP (10 μCi/μL stock) and water was added to each well (90 μL/well) of a Streptavidin Flashplate (Perkin Elmer, Wellesley, Mass.).
Test compound in 100% DMSO (2 μL) was added to the appropriate wells. Diluted GSTEGFR (1:300 dilution in 50 mM Tris at pH 8.0 and 0.1% bovine serum albumin) (10 μL) was added to the wells to initiate the reactions.
The plates were incubated at 30° C. for 1 hr with shaking. The reacted contents were removed and the plates were sequentially washed three times with a 1×PBS stop buffer (300 μL without Magnesium and Calcium) and 100 mM EDTA. After the final wash, the same stop buffer (200 μL) was added to the wells. The plates were then sealed and read on the TopCount scintillation counter.
Test compounds were assayed in triplicate at 16 concentrations at half-log dilutions starting at 200 uM. A maximum and minimum signal for the assay was determined on each plate. The percent inhibition of a test compound was calculated according to the formula
For a series of test concentrations, the IC50 was derived by graphing percent inhibition against the log of the concentrations tested for a given compound. The percent inhibition results are shown in Table 1 at a test concentration of 2 μM. For those compounds with an IC50, the IC50 value is shown in parentheses.

Chain of VEGFR2 (O08775 786-1343): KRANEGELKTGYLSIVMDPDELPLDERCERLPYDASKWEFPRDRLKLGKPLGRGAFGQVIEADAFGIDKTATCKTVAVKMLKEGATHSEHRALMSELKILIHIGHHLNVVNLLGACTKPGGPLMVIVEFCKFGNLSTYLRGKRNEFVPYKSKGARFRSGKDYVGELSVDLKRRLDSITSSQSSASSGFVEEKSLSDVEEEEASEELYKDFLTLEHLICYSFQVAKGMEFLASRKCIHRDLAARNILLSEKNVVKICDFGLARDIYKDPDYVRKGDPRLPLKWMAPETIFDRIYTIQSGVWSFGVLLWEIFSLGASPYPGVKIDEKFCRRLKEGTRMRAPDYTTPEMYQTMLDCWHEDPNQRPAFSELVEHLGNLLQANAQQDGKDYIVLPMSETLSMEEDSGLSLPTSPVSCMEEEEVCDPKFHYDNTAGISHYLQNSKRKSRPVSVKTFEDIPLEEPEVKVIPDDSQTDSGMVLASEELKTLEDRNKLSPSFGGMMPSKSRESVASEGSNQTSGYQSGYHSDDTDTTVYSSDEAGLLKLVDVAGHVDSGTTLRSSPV

| IC50 (VEGFR2) [µM] | IC50 (CDK2) [µM] | IC50 (CDK1) [µM] | IC50 (A375 malignant melanoma) [µM] | IC50 (HCT-116 colon carcinoma) [µM] | IC50 [1] [µM] | IC50 (EGFR; read-out: EGFR IC50 (value in parentheses)) [µM] | inhibition at 2 µM (EGFR; test concentration of 2 μM) [%] | Compound | EGFR Inhibition (%) (EGFR; test concentration of 2 μM) |
| --- | --- | --- | --- | --- | --- | --- | --- | --- | --- |
| > 100 | > 100 | > 100 | – | – | – | – | – | c1cc(N2CCNCC2)ccc1Nc1nc(OCC2CCCCC2)c2cn[nH]c2n1 [Cpd 24, (4-cyclohexylmethoxy-1H-pyrazolo[3,4-d]pyrimidin-6-yl)-(4-piperazin-1-yl-phenyl)-amine] | – |
| 1 | 0.18 | 1 | 100 | 15 | 100 | – | – | O=S(=O)(NCCO)c1ccc(Nc2nc(Nc3ccc4[nH]ncc4c3)c3cnoc3n2)cc1 [Cpd 15, N-(2-hydroxy-ethyl)-4-[4-(1H-indazol-5-ylamino)-isoxazolo[5,4-d]pyrimidin-6-ylamino]-benzenesulfonamide] | – |
| > 10 | > 10 | > 100 | – | – | – | – | – | c1ccc(Nc2nc(OCC3CCCCC3)c3cn[nH]c3n2)cc1 [Cpd 25, (4-cyclohexylmethoxy-1H-pyrazolo[3,4-d]pyrimidin-6-yl)-phenyl-amine] | – |
| 4.47 | – | 0.83 | 7.5 | 11.2 | 19.4 | – | – | O=S(=O)(NCCN1CCOCC1)c1ccc(Nc2nc(OCC3CCCCC3)c3cn[nH]c3n2)cc1 [Cpd 27, 4-(4-cyclohexylmethoxy-1H-pyrazolo[3,4-d]pyrimidin-6-ylamino)-N-(2-morpholin-4-yl-ethyl)-benzenesulfonamide] | – |
| 2.32 | – | 0.268 | 8.6 | 5 | 4.6 | – | – | O=S(=O)(NCCO)c1ccc(Nc2nc(OCC3CCCCC3)c3cn[nH]c3n2)cc1 [Cpd 26, 4-(4-cyclohexylmethoxy-1H-pyrazolo[3,4-d]pyrimidin-6-ylamino)-N-(2-hydroxy-ethyl)-benzenesulfonamide] | – |
| 5 | 0.021 | 0.132 | 100 | 4.9 | 100 | – | – | NS(=O)(=O)c1ccc(Nc2nc(Nc3ccc(S(N)(=O)=O)cc3)c3cn[nH]c3n2)cc1 [Cpd 1, N^4,N^6-bis-[4-(amino-sulfonyl)-phenyl]-1H-pyrazolo[3,4-d]pyrimidine-4,6-diamine] | – |
| 75 | 3.29 | 12 | 100 | 15 | 100 | – | – | CC(C)C(CO)Nc1nc(Nc2ccc(S(=O)(=O)NCCO)cc2)nc2[nH]ncc12 (centres unmarked) [Cpd 14, N-(2-hydroxy-ethyl)-4-[4-(1-hydroxymethyl-2-methyl-propylamino)-1H-pyrazolo[3,4-d]pyrimidin-6-ylamino]-benzenesulfonamide] | – |
| 1 | 0.139 | 0.102 | 100 | 100 | 100 | – | – | O=S(=O)(NCCO)c1ccc(Nc2nc(Nc3ccc4[nH]ncc4c3)c3cn[nH]c3n2)cc1 [Cpd 11, N-(2-hydroxy-ethyl)-4-[4-(1H-indazol-5-ylamino)-1H-pyrazolo[3,4-d]pyrimidin-6-ylamino]-benzenesulfonamide] | – |

Continued, compound first:

| Compound | IC50 (VEGFR2) [µM] | IC50 (CDK2) [µM] | IC50 (CDK1) [µM] | IC50 (A375 malignant melanoma) [µM] | IC50 (HCT-116 colon carcinoma) [µM] | IC50 [1] [µM] | IC50 (EGFR; read-out: EGFR IC50 (value in parentheses)) [µM] | inhibition at 2 µM (EGFR; test concentration of 2 μM) [%] | EGFR Inhibition (%) (EGFR; test concentration of 2 μM) |
| --- | --- | --- | --- | --- | --- | --- | --- | --- | --- |
| c1nc2ccc(Nc3nc(Nc4ccc5ncsc5c4)c4cn[nH]c4n3)cc2s1 [Cpd 16, N^4,N^6-bis-benzothiazol-6-yl-1H-pyrazolo[3,4-d]pyrimidine-4,6-diamine] | 0.989 | 1 | 5 | 8.2 | 8.6 | 13.3 | – | – | – |
| NS(=O)(=O)c1ccc(Nc2nc(OCC3CCCCC3)c3cn[nH]c3n2)cc1 [Cpd 23, 4-(4-cyclohexylmethoxy-1H-pyrazolo[3,4-d]pyrimidin-6-ylamino)-benzenesulfonamide] | > 10 | – | – | 11 | 16.6 | 18.3 | – | – | – |
| 4-[6-(1H-indazol-5-ylamino)-1H-pyrazolo[3,4-d]pyrimidin-4-ylamino]-benzenesulfonamide [Cpd 4] | 1.15 | 0.15 | 0.527 | – | – | – | – | – | 65 |
| NS(=O)(=O)c1ccc(Nc2nc(NCc3ccccc3)c3cn[nH]c3n2)cc1 [Cpd 2, 4-(4-benzylamino-1H-pyrazolo[3,4-d]pyrimidin-6-ylamino)-benzenesulfonamide] | 20 | 1.6 | 7.16 | – | – | – | – | – | – |
| NS(=O)(=O)c1cccc(Nc2nc(Nc3cccc(S(N)(=O)=O)c3)c3cn[nH]c3n2)c1 [Cpd 22, N^4,N^6-bis-[3-(amino-sulfonyl)-phenyl]-1H-pyrazolo[3,4-d]pyrimidine-4,6-diamine] | 1 | – | 0.475 | 100 | 100 | 100 | 0.2 | 66.7 | – |
| NS(=O)(=O)c1ccc(Nc2nc(Nc3ccccc3)nc3[nH]ncc23)cc1 [Cpd 6, 4-(6-phenylamino-1H-pyrazolo[3,4-d]pyrimidin-4-ylamino)-benzenesulfonamide] | 4.28 | 1.11 | 2.34 | – | – | – | – | 40 | – |
